Test systems include HCC 2998; NCI-H226; SNB-75; EKVX; UACC-62; M14; SK-OV-3; DU-145; SF-539; RXF 393; HT-29; SW-620; NCI-H23; OVCAR-5; ACHN; T47D; SF-268; OVCAR-8; MDA-MB-435; A549.
Common to all, as to experiment: growth of human tumour cells (NCI), 48 h

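Briefly, cells in 96-well plates were exposed to five compound concentrations for 48 h, and endpoints were estimated by linear interpolation. Here, GI50 denotes the concentration required for 50% inhibition of growth.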 Calls of active or inactive are those of the source. Cut-off read from the data, not from the text of the source: active = GI50 up to about 1.1 µM and inactive = higher. Where only a bound is given, the exact number is not on record here.

Consider `CC1=C(N2CC2)C(=O)C(CO)=C(N2CC2)C1=O`, for which the GI50 is 0.0378 µM (active) in the test on HCC 2998; 0.0506 µM (active) with NCI-H226; 0.031 µM (active) in the test with SNB-75; 0.254 µM (active) in the test on EKVX; 0.022 µM (active) in the test on UACC-62; 0.0111 µM (active) with M14. In addition, the GI50 in the test on SK-OV-3 is 0.0516 µM (active); with DU-145, < 0.01 µM (active); with SF-539 it was < 0.0123 µM (active); with RXF 393, 0.0231 µM (active); with HT-29 it was 0.0132 µM (active); in the test on SW-620 it was 0.0123 µM (active). The GI50 with NCI-H23 was 0.0169 µM (active); with OVCAR-5, 0.067 µM (active); in the test with ACHN, < 0.01 µM (active); in the test on T47D, 0.0114 µM (active); in the test with SF-268, 0.0129 µM (active).
Take `COc1ccc(-c2cc(-c3ccccc3)nc(N)n2)c(O)c1`: the GI50 was > 100 µM (inactive) in the test with HCC 2998; > 100 µM (inactive) in the test with NCI-H226; 28.8 µM (inactive) in the test with SNB-75; > 24.9 µM (inactive) in the test with EKVX; 8.69 µM (inactive) with OVCAR-8; > 28.9 µM (inactive) with UACC-62. Further, the GI50 in the test with MDA-MB-435 was 3.56 µM (inactive); with M14, > 27.3 µM (inactive); with SK-OV-3, 7 µM (inactive); in the test on A549 it was 12.8 µM (inactive); in the test with SF-539, > 100 µM (inactive); in the test on RXF 393, > 100 µM (inactive). The GI50 is > 26.9 µM (inactive) with HT-29; 5.32 µM (inactive) in the test on SW-620; > 100 µM (inactive) with NCI-H23; > 100 µM (inactive) with OVCAR-5; 21.1 µM (inactive) in the test with ACHN; 5.86 µM (inactive) in the test with T47D. For the same molecule, the GI50 in the test on SF-268 is 17.8 µM (inactive).
For the molecule `COC(=O)c1ccc(C)cc1C1CN=NC12Cc1cc(C)c(C)cc1C2=O` (stereo unspecified), the GI50 with HCC 2998 is 29.8 µM (inactive); in the test with NCI-H226, 45.1 µM (inactive); in the test on SNB-75, 35.9 µM (inactive); with EKVX, 24.3 µM (inactive); with OVCAR-8 it was 65 µM (inactive); in the test with MDA-MB-435, 24.9 µM (inactive). For the same molecule, the GI50 in the test with M14 was 35.4 µM (inactive); in the test on DU-145, 59.2 µM (inactive); in the test on A549, 34.4 µM (inactive); in the test on SF-539, 50.6 µM (inactive); in the test with RXF 393, 31.8 µM (inactive); in the test on HT-29 it was 25.3 µM (inactive). Further, the GI50 was 35.6 µM (inactive) in the test with SW-620; 40.6 µM (inactive) with NCI-H23; > 100 µM (inactive) in the test on OVCAR-5; 29.5 µM (inactive) in the test on ACHN; 36.6 µM (inactive) with SF-268.
As to `CCOc1ccccc1NC(=O)CC1Sc2ccccc2NC1=O` (stereo unspecified), the GI50 with HCC 2998 was > 100 µM (inactive); in the test with NCI-H226, > 100 µM (inactive); in the test with SNB-75 it was 31.2 µM (inactive); with EKVX it was 41.5 µM (inactive); in the test on OVCAR-8, 58.3 µM (inactive); in the test with UACC-62, 36.2 µM (inactive). The GI50 in the test with M14 is 45.8 µM (inactive); in the test with SK-OV-3, > 100 µM (inactive); in the test with A549 it was 82.2 µM (inactive); in the test with SF-539 it was 62.7 µM (inactive); with RXF 393, > 100 µM (inactive); with HT-29, 55.3 µM (inactive). Moreover, the GI50 in the test on SW-620 is 49.2 µM (inactive); with NCI-H23, 61.2 µM (inactive); in the test with OVCAR-5 it was > 100 µM (inactive); in the test with ACHN it was 75.9 µM (inactive); in the test on SF-268, > 100 µM (inactive).
In the case of `CCOC(=O)c1cc(Sc2ccc(N)c(C(=O)OCC)c2)ccc1N`, the GI50 was 16.7 µM (inactive) in the test on NCI-H226; 12.3 µM (inactive) with SNB-75; 13.5 µM (inactive) in the test with EKVX; 20.7 µM (inactive) in the test with OVCAR-8; 9.42 µM (inactive) in the test with UACC-62; > 100 µM (inactive) in the test on M14. In addition, the GI50 with SK-OV-3 is > 100 µM (inactive); in the test on DU-145 it was > 100 µM (inactive); in the test on A549, 19.6 µM (inactive); in the test on SF-539, 24.9 µM (inactive); with RXF 393 it was 11.5 µM (inactive); in the test on HT-29, 28.8 µM (inactive). The GI50 in the test on SW-620 was > 100 µM (inactive); in the test with NCI-H23, 25.3 µM (inactive); in the test with OVCAR-5, 12.1 µM (inactive); with ACHN it was 10.4 µM (inactive); in the test with T47D, > 100 µM (inactive); in the test with SF-268, 16.1 µM (inactive).
Take `CN(/N=N/c1[nH]cnc1C(N)=O)C1CCCCC1`: the GI50 was > 100 µM (inactive) in the test with HCC 2998; > 100 µM (inactive) in the test with NCI-H226; 34.6 µM (inactive) in the test with SNB-75; > 100 µM (inactive) in the test with EKVX; 36.9 µM (inactive) in the test on OVCAR-8; 61.7 µM (inactive) in the test on UACC-62. Besides, the GI50 was 72.9 µM (inactive) in the test on M14; 48.2 µM (inactive) in the test on SK-OV-3; > 100 µM (inactive) in the test on A549; > 100 µM (inactive) with SF-539; > 100 µM (inactive) with RXF 393; > 100 µM (inactive) in the test with HT-29. Further, the GI50 was 69 µM (inactive) with SW-620; > 100 µM (inactive) in the test with NCI-H23; > 100 µM (inactive) in the test on OVCAR-5; > 100 µM (inactive) with ACHN; > 100 µM (inactive) in the test on SF-268.
On to `COC(=O)Cc1c(C2C(CC(=O)OC)c3ccccc3N2C2OC(CO)C(O)C(O)C2O)[nH]c2ccccc12` (stereo unspecified), for which the GI50 with HCC 2998, with SNB-75, in the test with EKVX, in the test on UACC-62, with MDA-MB-435 and with M14 was > 100 µM (inactive) each time. The GI50 with SK-OV-3, with DU-145, in the test on A549, in the test with HT-29, in the test on SW-620 and with NCI-H23 was > 100 µM (inactive) throughout. In addition, the GI50 with OVCAR-5 and in the test with SF-268 was > 100 µM (inactive) throughout.
Take `O=c1[nH]c(=O)n(COCc2ccccc2)cc1Nc1ccc(Br)cc1`: the GI50 in the test on HCC 2998, in the test with NCI-H226, in the test on EKVX, in the test with UACC-62, in the test with MDA-MB-435 and with M14 was > 100 µM (inactive) throughout. The GI50 in the test with DU-145 was > 100 µM (inactive); in the test on A549, > 100 µM (inactive); in the test with RXF 393 it was 43.2 µM (inactive); in the test with HT-29 it was > 100 µM (inactive); with SW-620, > 100 µM (inactive); in the test on NCI-H23, > 100 µM (inactive). Also, the GI50 was > 100 µM (inactive) in the test on OVCAR-5, > 100 µM (inactive) in the test with ACHN and 28.5 µM (inactive) with SF-268.
Take `CC(C)Cc1ccc(C(C)/C=C2\CCC(CN3CCOCC3)C2=O)cc1` (stereo unspecified): the GI50 in the test on HCC 2998 was 11.6 µM (inactive); in the test on NCI-H226, 20.3 µM (inactive); in the test on SNB-75 it was 8.34 µM (inactive); in the test on EKVX, 18 µM (inactive); in the test with OVCAR-8, 3.61 µM (inactive); in the test on UACC-62 it was 12.5 µM (inactive). The GI50 in the test on MDA-MB-435 is 6.92 µM (inactive); in the test with M14, 5.02 µM (inactive); in the test with SK-OV-3, 18.8 µM (inactive); with DU-145, 13.7 µM (inactive); in the test on A549 it was 18.6 µM (inactive); with SF-539, 12.5 µM (inactive). The GI50 with RXF 393 was 8.43 µM (inactive); in the test on HT-29, 6.73 µM (inactive); in the test with SW-620, 3 µM (inactive); in the test on NCI-H23, 12.9 µM (inactive); in the test with OVCAR-5, 20.7 µM (inactive); with ACHN it was 16 µM (inactive). Moreover, the GI50 in the test with SF-268 was 6.87 µM (inactive).
Turning to `C=CCn1c(-c2ccc([N+](=O)[O-])cc2)cs/c1=N\C(P(=O)(O)O)P(=O)(O)O`, the GI50 in the test on HCC 2998, in the test on NCI-H226, with SNB-75, in the test with EKVX, with OVCAR-8 and with UACC-62 was > 100 µM (inactive) each time. Further, the GI50 in the test with MDA-MB-435, with M14, in the test on SK-OV-3, in the test on DU-145, with A549 and with SF-539 was > 100 µM (inactive) each time. Moreover, the GI50 in the test with RXF 393, in the test with HT-29, in the test on SW-620, in the test with NCI-H23, in the test with OVCAR-5 and with ACHN was > 100 µM (inactive) each time. For the same molecule, the GI50 in the test on SF-268 was > 100 µM (inactive).
For the molecule `COc1ccc(C(N)=O)c(OC)c1OCc1ccccc1`, the GI50 with HCC 2998, in the test on NCI-H226, in the test with SNB-75, with EKVX, in the test with OVCAR-8 and with UACC-62 was > 100 µM (inactive) each time. Further, the GI50 was > 100 µM (inactive) with M14; > 100 µM (inactive) with SK-OV-3; > 100 µM (inactive) in the test on A549; > 100 µM (inactive) in the test on SF-539; 0.15 µM (active) in the test on RXF 393; > 100 µM (inactive) in the test on HT-29. Further, the GI50 with SW-620 is > 100 µM (inactive); in the test on NCI-H23, 9.51 µM (inactive); with OVCAR-5 it was > 100 µM (inactive); with ACHN, > 100 µM (inactive); in the test with SF-268 it was > 100 µM (inactive).
With `C[Si](C)(C)[C@@]1([Se]c2ccccc2)CC[C@@H]1C(=O)c1ccccc1`, the GI50 with HCC 2998 is 32.6 µM (inactive); with NCI-H226 it was 40.2 µM (inactive); in the test with SNB-75, 61 µM (inactive); in the test with EKVX, 49.3 µM (inactive); with OVCAR-8, 50.5 µM (inactive); in the test on UACC-62, 71.4 µM (inactive). For the same molecule, the GI50 in the test on M14 was 80.4 µM (inactive); in the test with SK-OV-3 it was > 100 µM (inactive); with A549, 56.2 µM (inactive); with SF-539, 62.7 µM (inactive); in the test with RXF 393, 19 µM (inactive); in the test with HT-29, 42.3 µM (inactive). In addition, the GI50 is 53 µM (inactive) in the test with SW-620; 33.7 µM (inactive) with NCI-H23; > 100 µM (inactive) with OVCAR-5; 54 µM (inactive) in the test on ACHN; 28.8 µM (inactive) in the test on SF-268.
